Values after ≈ are worked out from the molar mass of the structure shown. Like-named read-outs stand apart in the source and are kept apart here.
Tests used:
Test in all cases: standard agar dilution in vitro test
Type in all cases: cell-based
[1] = test system: Acinetobacter calcoaceticus AC12; details: read-out: Minimum Inhibitory Concentration
Description: (§1) The antibacterial activity of the compounds of the formula 1 is illustrated by the data presented in Table 2 for two such compounds. The data presented are the minimum inhibitory concentrations (μg/ml) against representative pathogens obtained in the standard agar dilution in vitro test.

[2] = test system: Citrobacter freundii CF17; details: read-out: Minimum Inhibitory Concentration
Description: as §1

[3] = test system: Enterobacter aerogenes C32; details: Klebsiella aerogenes, read-out: Minimum Inhibitory Concentration
Description: as §1

[4] = test system: Enterobacter aerogenes EB17; details: Klebsiella aerogenes, read-out: Minimum Inhibitory Concentration
Description: as §1

[5] = test system: Enterobacter cloacae 265A; details: read-out: Minimum Inhibitory Concentration
Description: as §1

Enterobacter cloacae EB5 = details: read-out: Minimum Inhibitory Concentration
Description: as §1

Escherichia coli EC14 = test system: Escherichia coli EC14
Description: as §1

Escherichia coli N10 = details: read-out: Minimum Inhibitory Concentration
Description: as §1

Escherichia coli TEM = details: read-out: Minimum Inhibitory Concentration
Description: as §1

[6] = test system: Haemophilus influenzae 76; details: read-out: Minimum Inhibitory Concentration
Description: as §1

[7] = test system: Haemophilus influenzae C.L.; details: read-out: Minimum Inhibitory Concentration
Description: as §1

[8] = test system: Klebsiella pneumoniae KAE; details: read-out: Minimum Inhibitory Concentration
Description: as §1

[9] = test system: Klebsiella pneumoniae X26; details: read-out: Minimum Inhibitory Concentration
Description: as §1

[10] = test system: Klebsiella pneumoniae X68
Description: as §1

Proteus inconstans PR33 = details: Providencia alcalifaciens
Description: as §1

Proteus morganii PR15 = details: Morganella morganii, read-out: Minimum Inhibitory Concentration
Description: as §1

Proteus rettgeri C24 = details: Providencia rettgeri
Description: as §1

[11] = test system: Pseudomonas aeruginosa PS18; details: read-out: Minimum Inhibitory Concentration
Description: as §1

[12] = test system: Pseudomonas aeruginosa PS72; details: read-out: Minimum Inhibitory Concentration
Description: as §1

[13] = test system: Pseudomonas aeruginosa X239; details: read-out: Minimum Inhibitory Concentration
Description: as §1

[14] = test system: Pseudomonas aeruginosa X528; details: read-out: Minimum Inhibitory Concentration
Description: as §1

Salmonella typhi 1335 = details: Salmonella enterica, read-out: Minimum Inhibitory Concentration
Description: as §1

Salmonella typhi X514 = details: Salmonella enterica, read-out: Minimum Inhibitory Concentration
Description: as §1

Serratia marcescens SE3 = details: read-out: Minimum Inhibitory Concentration
Description: as §1

Serratia marcescens X99 = details: read-out: Minimum Inhibitory Concentration
Description: as §1

Shigella sonnei N9 = details: read-out: Minimum Inhibitory Concentration
Description: as §1

[15] = test system: Staphylococcus aureus 513E; details: read-out: Minimum Inhibitory Concentration
Description: as §1

[16] = test system: Staphylococcus aureus V41; details: read-out: Minimum Inhibitory Concentration
Description: as §1

[17] = test system: Staphylococcus aureus X1.1; details: read-out: Minimum Inhibitory Concentration
Description: as §1

[18] = test system: Staphylococcus aureus X400; details: read-out: Minimum Inhibitory Concentration
Description: as §1

[19] = test system: Staphylococcus epidermidis 222; details: read-out: Minimum Inhibitory Concentration
Description: as §1

[20] = test system: Staphylococcus epidermidis EPi1; details: read-out: Minimum Inhibitory Concentration
Description: as §1

[21] = test system: Streptococcus Group D 2041; details: GROUPD2041, read-out: Minimum Inhibitory Concentration
Description: as §1

[22] = test system: Streptococcus Group D X66; details: read-out: Minimum Inhibitory Concentration
Description: as §1

[23] = test system: Streptococcus pneumoniae Park I; details: read-out: Minimum Inhibitory Concentration
Description: as §1

[24] = test system: Streptococcus pyogenes C203; details: read-out: Minimum Inhibitory Concentration
Description: as §1

Row | SMILES | MIC [1] [µg/mL] | MIC [2] [µg/mL] | MIC [3] [µg/mL] | MIC [4] [µg/mL] | MIC [5] [µg/mL] | MIC (Enterobacter cloacae EB5) [µg/mL] | MIC (Escherichia coli N10) [µg/mL] | MIC (Escherichia coli TEM) [µg/mL] | MIC [7] [µg/mL] | MIC [8] [µg/mL] | MIC [9] [µg/mL] | MIC (Proteus morganii PR15) [µg/mL] | MIC [11] [µg/mL] | MIC [12] [µg/mL] | MIC [13] [µg/mL] | MIC [14] [µg/mL] | MIC (Salmonella typhi 1335) [µg/mL] | MIC (Salmonella typhi X514) [µg/mL] | MIC (Serratia marcescens SE3) [µg/mL] | MIC (Serratia marcescens X99) [µg/mL] | further results
1 | Cn1nc(O)c(=O)nc1SCC1=C(C(=O)O)N2C(=O)[C@@H](NC(=O)/C(=N\OCc3cc(Cl)ccc3Cl)c3csc(N)n3)[C@H]2SC1 [Test Compound B, 7β-[2-(2-Aminothiazol-4-yl)-2-(2,5-dichlorobenzyloxyimino)acetamido]-3-[(2,5-dihydro-6-hydroxy-2-methyl-5-oxo-1,2,4-triazin-3-yl)thiomethyl]-3-cephem-4-carboxylic acid] | 2 (≈ 2.86 µM) | 2 (≈ 2.86 µM) | 0.25 (≈ 0.357 µM) | 1 (≈ 1.43 µM) | 128 (≈ 183 µM) | 0.25 (≈ 0.357 µM) | 0.25 (≈ 0.357 µM) | 0.06 (≈ 0.0858 µM) | 0.03 (≈ 0.0429 µM) | 16 (≈ 22.9 µM) | 0.06 (≈ 0.0858 µM) | 0.5 (≈ 0.715 µM) | 32 (≈ 45.7 µM) | 16 (≈ 22.9 µM) | 8 (≈ 11.4 µM) | 64 (≈ 91.5 µM) | 1 (≈ 1.43 µM) | 0.25 (≈ 0.357 µM) | 2 (≈ 2.86 µM) | 1 (≈ 1.43 µM) | MIC (Escherichia coli EC14; Escherichia coli EC14, agar dilution, read-out: Minimum Inhibitory Concentration): 0.25 µg/mL (≈ 0.357 µM); MIC [6]: 0.015 µg/mL (≈ 0.0214 µM); MIC ([10]; Klebsiella pneumoniae X68, agar dilution, read-out: Minimum Inhibitory Concentration): 0.25 µg/mL (≈ 0.357 µM); MIC (Proteus inconstans PR33; Proteus inconstans PR33, agar dilution, read-out: Minimum Inhibitory Concentration): 0.25 µg/mL (≈ 0.357 µM); MIC (Proteus rettgeri C24; Proteus rettgeri C24, agar dilution, read-out: Minimum Inhibitory Concentration): 0.5 µg/mL (≈ 0.715 µM); MIC (Shigella sonnei N9): 0.5 µg/mL (≈ 0.715 µM); MIC [15]: 4 µg/mL (≈ 5.72 µM); MIC [16]: 4 µg/mL (≈ 5.72 µM); MIC [17]: 0.5 µg/mL (≈ 0.715 µM); MIC [18]: 32 µg/mL (≈ 45.7 µM); MIC [19]: 0.5 µg/mL (≈ 0.715 µM); MIC [20]: 8 µg/mL (≈ 11.4 µM); MIC [21]: 0.5 µg/mL (≈ 0.715 µM); MIC [22]: > 128 µg/mL; MIC [23]: < 0.008 µg/mL; MIC [24]: < 0.008 µg/mL
2 | Cn1nc(O)c(=O)nc1SCC1=C(C(=O)O)N2C(=O)[C@@H](NC(=O)/C(=N\OCc3ccc(O)cc3)c3csc(N)n3)[C@H]2SC1 [Test Compound A, 7β-[2-(2-Aminothiazol-4-yl)-2-(4-hydroxybenzyloxyimino)acetamido]-3-[(2,5-dihydro-6-hydroxy-2-methyl5-oxo-1,2,4-triazin-3-yl)thiomethyl]-3-cephem-4carboxylic acid] | 16 (≈ 24.7 µM) | 4 (≈ 6.19 µM) | 0.25 (≈ 0.387 µM) | 0.5 (≈ 0.773 µM) | 128 (≈ 198 µM) | 0.5 (≈ 0.773 µM) | 0.25 (≈ 0.387 µM) | 0.03 (≈ 0.0464 µM) | 0.03 (≈ 0.0464 µM) | 16 (≈ 24.7 µM) | 0.06 (≈ 0.0928 µM) | 1 (≈ 1.55 µM) | 16 (≈ 24.7 µM) | 64 (≈ 99 µM) | 8 (≈ 12.4 µM) | 128 (≈ 198 µM) | 0.25 (≈ 0.387 µM) | 0.125 (≈ 0.193 µM) | 4 (≈ 6.19 µM) | 0.5 (≈ 0.773 µM) | MIC (Escherichia coli EC14; Escherichia coli, EC14, read-out: Minimum Inhibitory Concentration): 0.125 µg/mL (≈ 0.193 µM); MIC ([10]; Klebsiella pneumoniae, X68, read-out: Minimum Inhibitory Concentration): 0.125 µg/mL (≈ 0.193 µM); MIC (Proteus inconstans PR33; PR33, read-out: Minimum Inhibitory Concentration): 0.125 µg/mL (≈ 0.193 µM); MIC (Proteus rettgeri C24; C24, read-out: Minimum Inhibitory Concentration): 0.125 µg/mL (≈ 0.193 µM); MIC (Shigella sonnei N9): 0.125 µg/mL (≈ 0.193 µM); MIC [15]: 8 µg/mL (≈ 12.4 µM); MIC [16]: 8 µg/mL (≈ 12.4 µM); MIC [17]: 1 µg/mL (≈ 1.55 µM); MIC [18]: 16 µg/mL (≈ 24.7 µM); MIC [19]: 2 µg/mL (≈ 3.09 µM); MIC [20]: 8 µg/mL (≈ 12.4 µM); MIC [21]: 1 µg/mL (≈ 1.55 µM); MIC [22]: 128 µg/mL (≈ 198 µM); MIC [23]: < 0.008 µg/mL; MIC [24]: < 0.008 µg/mL
